Results from PubChem BioAssay (NCI).
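Results reflect a 48-hour exposure of cells in 96-well plates to compound at five concentrations. Abbreviation: GI50, concentration required for 50% inhibition of growth. At the TGI there is no net growth.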

Legend:
Experiment in all cases: inhibition of tumour cell growth, NCI panel, 48 h
SW-620 colon = system: SW-620 colon
SK-OV-3 ovarian = system: SK-OV-3 ovarian
SF-539 CNS = system: SF-539 CNS
M14 melanoma = system: M14 melanoma
HCC-2998 colon = system: HCC-2998 colon
SN12C renal = system: SN12C renal
HS 578T breast = system: HS 578T breast
MDA-MB-231 breast = system: MDA-MB-231 breast
RPMI-8226 leukemia = system: RPMI-8226 leukemia
T-47D breast = system: T-47D breast
UACC-257 melanoma = system: UACC-257 melanoma
NCI-H460 lung = system: NCI-H460 lung
NCI-H23 lung = system: NCI-H23 lung
K-562 leukemia = system: K-562 leukemia
NCI-H226 lung = system: NCI-H226 lung
OVCAR-5 ovarian = system: OVCAR-5 ovarian
LOX IMVI melanoma = system: LOX IMVI melanoma
OVCAR-8 ovarian = system: OVCAR-8 ovarian
OVCAR-3 ovarian = system: OVCAR-3 ovarian
DU-145 prostate = system: DU-145 prostate
KM12 colon = system: KM12 colon
NCI-H522 lung = system: NCI-H522 lung
MCF7 breast = system: MCF7 breast
SK-MEL-28 melanoma = system: SK-MEL-28 melanoma
A549 NSCLC = system: A549 NSCLC
UACC-62 melanoma = system: UACC-62 melanoma
OVCAR-4 ovarian = system: OVCAR-4 ovarian
HT29 colon = system: HT29 colon
NCI/ADR-RES ovarian = system: NCI/ADR-RES ovarian

In the case of `COc1cc(N2CCC(N3CCN(C)CC3)CC2)ccc1Nc1ncnc(Nc2ccccc2S(=O)(=O)C(C)C)n1`, the TGI (SW-620 colon) is reported as 39.5 µM, the GI50 (SK-OV-3 ovarian) is reported as 5.18 µM and the TGI (SK-OV-3 ovarian) is reported as 30.5 µM. It also gave a GI50 (SF-539 CNS) of 3.46 µM, a TGI (SF-539 CNS) of 14.6 µM and a GI50 (M14 melanoma) of 4.07 µM. It also gave a TGI (M14 melanoma) of 16.6 µM, a GI50 (HCC-2998 colon) of 13.2 µM and a TGI (HCC-2998 colon) of 36.9 µM. It also gave a GI50 (SN12C renal) of 2.89 µM, a TGI (SN12C renal) of 29.8 µM and a GI50 (HS 578T breast) of 4.2 µM. It also gave a TGI (HS 578T breast) of 54.5 µM, a GI50 (MDA-MB-231 breast) of 3.31 µM and a TGI (MDA-MB-231 breast) of 18.5 µM. For the same molecule, the GI50 (RPMI-8226 leukemia) was 10.9 µM, the TGI (RPMI-8226 leukemia) was 41.9 µM and the GI50 (T-47D breast) was 5.18 µM. It also gave a TGI (T-47D breast) of 39.9 µM, a GI50 (UACC-257 melanoma) of 8.42 µM and a TGI (UACC-257 melanoma) of 27.3 µM. The GI50 (NCI-H460 lung) was 7.24 µM, the TGI (NCI-H460 lung) was 25.6 µM and the GI50 (NCI-H23 lung) was 8.1 µM. For the same molecule, the TGI (NCI-H23 lung) was 36.6 µM, the GI50 (K-562 leukemia) was 10.6 µM and the TGI (K-562 leukemia) was 73.7 µM. For the same molecule, the GI50 (NCI-H226 lung) was 2.19 µM, the TGI (NCI-H226 lung) was 17.5 µM and the GI50 (OVCAR-5 ovarian) was 2.06 µM. It also gave a TGI (OVCAR-5 ovarian) of 12.8 µM, a GI50 (LOX IMVI melanoma) of 2.28 µM and a TGI (LOX IMVI melanoma) of 7.62 µM. For the same molecule, the GI50 (OVCAR-8 ovarian) was 3.52 µM, the TGI (OVCAR-8 ovarian) was 21.3 µM and the GI50 (OVCAR-3 ovarian) was 7.33 µM. It also gave a TGI (OVCAR-3 ovarian) of 28.1 µM, a GI50 (DU-145 prostate) of 5.32 µM and a TGI (DU-145 prostate) of 20.9 µM. It also gave a GI50 (KM12 colon) of 6.76 µM, a TGI (KM12 colon) of 27.6 µM and a GI50 (NCI-H522 lung) of 4.65 µM. It also gave a TGI (NCI-H522 lung) of 14 µM, a GI50 (MCF7 breast) of 2.36 µM and a TGI (MCF7 breast) of 23.5 µM. It also gave a GI50 (SK-MEL-28 melanoma) of 10.9 µM, a TGI (SK-MEL-28 melanoma) of 34.9 µM and a GI50 (A549 NSCLC) of 3.17 µM. It also gave a TGI (A549 NSCLC) of 14.9 µM, a GI50 (UACC-62 melanoma) of 8.35 µM and a TGI (UACC-62 melanoma) of 27.1 µM. For the same molecule, the GI50 (OVCAR-4 ovarian) was 8.93 µM, the TGI (OVCAR-4 ovarian) was 42.2 µM and the GI50 (HT29 colon) was 1.93 µM. It also gave a TGI (HT29 colon) of 7.25 µM, a GI50 (NCI/ADR-RES ovarian) of 7.26 µM and a TGI (NCI/ADR-RES ovarian) of 42.6 µM.
